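Tested at 5 concentrations; 48 h exposure; 96-well plates; endpoints linearly interpolated, else capped at highest concentration. The concentration for full growth arrest is given as TGI.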

Among the test systems are SNB-19 CNS; M19-MEL melanoma; A498 renal; LXFL 529 NSCLC; UO-31 renal; SK-MEL-2 melanoma; DMS 273 small cell lung; SW-620 colon; KM20L2 colon; U251 CNS; HOP-18 NSCLC; DLD-1 colon; SNB-78 CNS; DMS 114 small cell lung; RPMI-8226 leukemia; XF 498 CNS; RXF-631 renal.
Assay in all cases: inhibition of tumour cell growth, NCI panel, 48 h

On to `CCOC(=O)CC1=N/C(=N/C(=N)N[N+](=O)[O-])SC1`, for which the TGI in the test with SNB-19 CNS, with M19-MEL melanoma, with A498 renal, in the test on LXFL 529 NSCLC, in the test with UO-31 renal and with SK-MEL-2 melanoma was more than 100 µM in each case. Also, the TGI in the test with DMS 273 small cell lung, in the test with SW-620 colon, in the test with KM20L2 colon, in the test with U251 CNS, in the test with HOP-18 NSCLC and with DLD-1 colon was more than 100 µM in each case. In the test with SNB-78 CNS, this compound gave a TGI of more than 100 µM.
Consider `C=C=C[P+](c1ccccc1)(c1ccccc1)c1ccccc1`, for which the TGI in the test on DMS 114 small cell lung was 29.9 µM; in the test on M19-MEL melanoma it was 91.9 µM; in the test with A498 renal it was more than 100 µM; in the test with LXFL 529 NSCLC, 20.8 µM; in the test on UO-31 renal, more than 100 µM; with SK-MEL-2 melanoma it was 26.5 µM. Besides, the TGI in the test on DMS 273 small cell lung was 54.8 µM; in the test with U251 CNS, 14.3 µM; with HOP-18 NSCLC it was more than 100 µM; in the test with RPMI-8226 leukemia, 6.37 µM; with DLD-1 colon, more than 100 µM; in the test on SNB-78 CNS, 86 µM.
For `Nc1ccccc1N`, the TGI in the test with SNB-19 CNS, with M19-MEL melanoma, in the test on A498 renal, in the test on LXFL 529 NSCLC, in the test with UO-31 renal and in the test on SK-MEL-2 melanoma was more than 100 µM each time. Besides, the TGI in the test on DMS 273 small cell lung, in the test with SW-620 colon, in the test with U251 CNS, with HOP-18 NSCLC, in the test on RPMI-8226 leukemia and in the test with DLD-1 colon was more than 100 µM throughout.
`CCN(CC)C(=O)CCn1ccc(=O)[nH]c1=O`: the TGI with DMS 114 small cell lung, in the test with SNB-19 CNS, with M19-MEL melanoma, in the test on LXFL 529 NSCLC, in the test with UO-31 renal and with SK-MEL-2 melanoma was more than 100 µM each time. The TGI in the test on DMS 273 small cell lung, in the test on SW-620 colon, with KM20L2 colon, in the test with U251 CNS, with RPMI-8226 leukemia and in the test on SNB-78 CNS was more than 100 µM in each case. In addition, in the test with XF 498 CNS, the TGI was more than 100 µM.
Regarding `O=C1C(Cl)C(c2cccc([N+](=O)[O-])c2)N1n1cnc2ccccc2c1=O` (centres undefined), the TGI in the test on DMS 114 small cell lung, in the test with SNB-19 CNS, in the test with M19-MEL melanoma, with LXFL 529 NSCLC, in the test on UO-31 renal and in the test with SK-MEL-2 melanoma was more than 100 µM each time. In addition, the TGI with DMS 273 small cell lung, in the test with SW-620 colon, in the test on KM20L2 colon, with U251 CNS, with HOP-18 NSCLC and with RPMI-8226 leukemia was more than 100 µM throughout. Also, the TGI in the test on DLD-1 colon was more than 100 µM.
For `C/C(=N/NC(=O)c1ccccc1S(N)(=O)=O)C(CN1CCCCC1)C(C1=C(O)C2C=CC=CC2OC1=O)c1ccccc1` (centres undefined), the TGI in the test with SNB-19 CNS, in the test on M19-MEL melanoma, with A498 renal, in the test on LXFL 529 NSCLC, with UO-31 renal and with SK-MEL-2 melanoma was more than 100 µM throughout. In addition, the TGI is more than 100 µM with SW-620 colon; more than 100 µM in the test on RXF-631 renal; more than 100 µM in the test with KM20L2 colon; more than 100 µM with U251 CNS; more than 100 µM with HOP-18 NSCLC; 79 µM in the test on RPMI-8226 leukemia. In addition, the TGI in the test with DLD-1 colon, in the test on SNB-78 CNS and with XF 498 CNS was more than 100 µM each time.
Turning to `CC(=O)OCC1OC(N2C(=O)[C@@H](Oc3ccccc3)[C@H]2/C=C/c2ccccc2)C(OC(C)=O)C(OC(C)=O)C1OC(C)=O` (some centres undefined), the TGI in the test with DMS 114 small cell lung, in the test on SNB-19 CNS, in the test on M19-MEL melanoma, in the test on A498 renal, in the test with LXFL 529 NSCLC and in the test on UO-31 renal was more than 100 µM throughout. Further, the TGI in the test on SK-MEL-2 melanoma, in the test on DMS 273 small cell lung, in the test with SW-620 colon, with KM20L2 colon, in the test with U251 CNS and in the test on RPMI-8226 leukemia was more than 100 µM throughout. In addition, the TGI with DLD-1 colon, in the test on SNB-78 CNS and in the test with XF 498 CNS was more than 100 µM throughout.
Turning to `COc1cccc2c1C(=O)c1c(O)c3c(c(O)c1C2=O)C[C@@](O)(C(=O)CO)CC3OC1CC(N(C)CCOCC(OC(C)=O)OC(C)=O)C(O)C(C)O1` (some centres undefined), the TGI in the test on DMS 114 small cell lung, in the test with SNB-19 CNS, in the test on M19-MEL melanoma, in the test on LXFL 529 NSCLC, with UO-31 renal and in the test with SK-MEL-2 melanoma was more than 0.01 µM each time. Moreover, the TGI in the test with SW-620 colon, with KM20L2 colon, in the test with U251 CNS, with HOP-18 NSCLC, in the test with RPMI-8226 leukemia and with DLD-1 colon was more than 0.01 µM in each case. In addition, in the test on XF 498 CNS, the TGI is more than 0.01 µM.
For `CC1(OCc2ccccc2)C(=O)N2C1NCC2(C)C` (centres undefined), the TGI in the test on DMS 114 small cell lung, with SNB-19 CNS, in the test on M19-MEL melanoma, in the test with A498 renal, in the test on LXFL 529 NSCLC and in the test on UO-31 renal was more than 100 µM each time. For the same compound, the TGI in the test on SK-MEL-2 melanoma, in the test with DMS 273 small cell lung, in the test on SW-620 colon, in the test on RXF-631 renal, in the test with KM20L2 colon and in the test on U251 CNS was more than 100 µM each time. In addition, the TGI with RPMI-8226 leukemia, in the test on DLD-1 colon and in the test on XF 498 CNS was more than 100 µM each time.
`C=C(Br)C(C)(Cl)CCC(Br)C(C)(C)Br` (centres undefined): the TGI in the test with DMS 114 small cell lung is 76 µM; in the test on M19-MEL melanoma it was more than 100 µM; in the test with LXFL 529 NSCLC, more than 100 µM; in the test on UO-31 renal, more than 100 µM; with SK-MEL-2 melanoma, 80.4 µM; in the test with DMS 273 small cell lung it was more than 100 µM. For the same compound, the TGI in the test on SW-620 colon is more than 100 µM; in the test on U251 CNS, more than 100 µM; in the test with HOP-18 NSCLC, more than 100 µM; with RPMI-8226 leukemia, 67 µM; in the test on DLD-1 colon it was more than 100 µM; in the test on SNB-78 CNS it was more than 100 µM.
For the compound `O=C1CSCC(=O)Nc2ccccc2N1`, the TGI in the test on SNB-19 CNS, in the test with A498 renal, with UO-31 renal, in the test on SK-MEL-2 melanoma, with SW-620 colon and in the test on U251 CNS was more than 100 µM in each case. In the test with RPMI-8226 leukemia, this compound came in with a TGI of more than 100 µM.
Regarding `O=C(CCC(=O)c1ccsc1)c1ccsc1`, the TGI with SNB-19 CNS, in the test with A498 renal, with UO-31 renal, in the test with SK-MEL-2 melanoma, in the test on SW-620 colon and with U251 CNS was more than 100 µM in each case. The TGI in the test with RPMI-8226 leukemia is more than 100 µM.
As to `CC(C)=CCC[C@@H](C)[C@H]1CC[C@@]2(C)[C@@H]3CC[C@H]4C(C)(C)[C@@H](O)CC[C@@]45C[C@@]35CC[C@]12C`, the TGI is more than 100 µM in the test with SNB-19 CNS; more than 94.3 µM with A498 renal; more than 66.2 µM in the test on UO-31 renal; more than 100 µM in the test on SK-MEL-2 melanoma; more than 100 µM with SW-620 colon; 31.1 µM in the test on U251 CNS. Also, the TGI with RPMI-8226 leukemia is more than 88.7 µM.
